Assay results reported in patent US11319348B2, “Synthetic beta-amyloid peptides capable of forming stable antigenic oligomers” (The Regents of the University of California, priority 2016, dated 2022).
Non-standard residues stand in square brackets, D forms with d. No end group written: not given here. NMeF = CN[C@@H](Cc1ccccc1)C(=O)O; Orn = NCCC[C@H](N)C(=O)O

Legend:
[1] = size exclusion chromatography in sodium acetate buffer; assay type: physicochemical; conditions: for oligomer state consistent with SEC elution volume: acetate buffer; for oligomer size by SEC: sodium acetate buffer pH 4.5
Description: The elution profiles in acetate buffer of trimers were compared to peptides 1 and 2. Size standards vitamin B12 (1.3 kDa), aprotinin (6.5 kDa), and […] (12.4 kDa) eluted at 18.6 mL, 15.4 mL, and 13.4 mL, respectively (FIG. 31A). Trimer 3 and […] eluted at 14.3 mL and at 14.5 mL, respectively. These elution volumes are consistent with the molecular weight of a hexamer (10.6 kDa). The peaks for trimers 3 and 4 tail slightly and may reflect a trimer-hexamer equilibrium in which the hexamer predominates.
Peptides 1 and 2 elute at 16.8 mL and 17.3 mL, respectively.
The oligomerization of peptides 1 and 2 and trimers 3 and 4 was studied by size-exclusion chromatography (SEC) at 4 CC in 50 mM sodium acetate/50 mM acetic acid buffer (sodium acetate buffer) at pH 4.5 as follows: Each peptide or trimer was dissolved in deionized water to a concentration of 10 mg/mL. The peptide or trimer solutions were then diluted to 1 mg/mL by adding 80 μL of the 10 mg/mL solutions to 720 μL of sodium acetate buffer. The peptide or trimer solutions were loaded onto a GE Superdex 75 10/300 GL column at 0.5 mL/min over 1 min. After loading, the samples were run with sodium acetate buffer at 1 mL/min, Chromatograms were recorded at 214 nm and normalized to the highest absorbance value. Standards (cytochrome C, aprotinin, and vitamin B12) were run in the same fashion.

SH-SY5Y cells = experiment: LDH release assay; assay type: cell-based, human; conditions: for LDH release / toxicity toward SH-SY5Y cells, in words / LDH release / lowest concentration with increased LDH release / toxicity (concentrations as low as): SH-SY5Y cells; for LDH release: 72 h
Description: Aβ is known to be toxic toward neurons and neuronally derived cells (I. Benilova, et al., 2012, cited supra). To corroborate the toxicity of Aβ, we prepared oligomers of Aβ42 and studied their toxicity toward a human neuroblastoma cell line, SH-SY5Y. Aβ oligomers were prepared according to the procedure developed by Teplow and coworkers using recombinantly expressed Aβ42 pretreated with NH4OH (purchased from rPeptide) (D. B. Teplow, Methods Enzymol. 2006 413, 20-33; and Y. Fezoui, et al., Amyloid. 2000 7, 166-178; the disclosures of which are incorporated herein by reference). Under the conditions of the oligomer preparation, Aβ42 forms predominantly monomer, trimer, and tetramer as assessed by SDS-PAGE (FIG. 28A). It was also observed that bands migrated with molecular weights consistent with a pentamer and hexamer. SH-SY5Y cells were treated with varying concentrations of Aβ42, and toxicity was evaluated using a lactate dehydrogenase (LDH) release assay. Aβ42 increased LDH release in a dose-dependent manner at concentrations as low as 2.5 μM, corroborating the toxicity of Aβ42 (FIG. 28B).
It was hypothesized that trimers 3 and 4 may elicit toxicity similarly to Aβ42. The toxicities of trimers 3 and 4 towards SH-SY5Y cells were evaluated using an LDH assay, using deionized water (vehicle) and peptides 1 and 2 as controls. Trimer 4 increased LDH release in a dose-dependent manner at concentrations as low as 1.5 μM, indicating toxicity toward SH-SY5Y cells (FIG. 29A). LDH release was observed as early as 48 h after addition to the cells and reached a maximum after 72 h.
Many oligomers formed by full-length Aβ are toxic toward cells (I. Benilove, E. Karan, and B. De Strooper, Nat. Neurosci. 2012 15, 349-357; and M. E. Larson and S. E. Lesne J. Neurochem. 2012 120, 125-139; the disclosures of which are incorporated herein by reference). To test whether the oligomers formed by peptide 8 are also toxic, the toxicity of peptide 8 toward neuronally derived SH-SY5Y cells were evaluated using a lactate dehydrogenase (LDH) release assay. Peptide 8 and 10 were compared to investigate how the hexamer-forming Aβ16-36-derived peptide compares to a non-oligomerizing homologue. The toxicity of peptides 2 and 11 were also evaluated to better understand the relationship between oligomerization and toxicity.
The toxicities of peptides 1 and […], and trimers 3 and 4 toward SH-SY5Y cells were assessed by LDH release and caspase-3 activation assays. Cells were incubated in the presence or absence of equivalent concentrations of peptides 1 or 3, or trimers 3 and 4 for 72 h in 96-well plates. The LDH release assay was performed using the Pierce LDH Cytotoxicity Assay Kit from Thermo Scientific. The caspase-3 assay was performed using the Roche APO-One Homogeneous Caspase-3/7 Assay. Experiments were performed in replicates of five and an additional 10 wells were used for controls. Cells were cultured in the inner 60 wells (rows B-G, columns 2-11) of the 96-well plate. DMEM:F12 media (100 μL) was added to the outer wells (rows A and H, columns 1 and 12), in order to ensure the greatest reproducibility of data generated in the inner wells.
A 10 mg/mL stock solution of peptides 1 or […], or trimers 3 and 4 was prepared gravimetrically by dissolving 1 mg of each compound in 100 μL of deionized water that was either filtered through a 0.2 μm syringe filter or autoclaved. The stock solution was used to create 180 μM working solutions of peptides 1 or 3, or 60 μM working solutions of trimers 3 and 4 (these solutions contain equivalent concentrations of peptide). The 180 μM working solutions of peptides 1 and 2 were serially diluted with deionized water to create 90 μM working solutions of peptides 1 and 2. The 60 μM working solutions of trimers 3 and 4 were serially diluted with deionized water to create 30 μM, 15 μM, and 7.5 μM working solutions of trimers 3 and 4.
SH-SY5Y cells were plated in a 96-well plate at 30,000 cells per well. […]

[2] = after addition to SH-SY5Y cells

Row | Substance | oligomer state consistent with SEC elution volume [1] | oligomer size by SEC [1] | LDH release / toxicity toward SH-SY5Y cells, in words (SH-SY5Y cells) | LDH release (SH-SY5Y cells) | lowest concentration with increased LDH release / toxicity (concentrations as low as) (SH-SY5Y cells) | time at which LDH release reached a maximum (SH-SY5Y cells; [2]) | time at which LDH release was first observed (as early as) (SH-SY5Y cells; [2])
1 | peptide 1: macrocyclic β-sheet peptide: Aβ17-23 and Aβ30-36 strands linked by two δOrn turns, Orn35, N-methyl on G33 (Seq. ID 18-19) | dimers | 1-2 | little or no LDH release | no |  |  | 
2 | peptide 2: macrocyclic β-sheet peptide: Aβ17-23 and Aβ30-36 strands linked by two δOrn turns, Orn35, N-methyl on F20 (Seq. ID 20-21) | dimers | 1-2 | little or no LDH release | no | 100 µM |  | 
3 | trimer 3: symmetric tris-disulfide crosslinked trimer generated from peptide 3 (chain 1 [Orn]CVFFCED; chain 2 [Orn]AIIGL[Orn]V; not fully specified (some residues); also: symmetric tris-disulfide crosslinked trimer, macrocyclic by macrolactamization, linkage of strands not given here) | hexamer | 6 | far less LDH release than trimer 4 | some |  |  | 
4 | trimer 4: symmetric tris-disulfide crosslinked trimer generated from peptide 4 (chain 1 [Orn]CVF[NMeF]CED; chain 2 [Orn]AIIGL[Orn]V; also: symmetric tris-disulfide crosslinked trimer, macrocyclic by macrolactamization, linkage of strands not given here) | hexamer | 6 |  | yes | 1.5 µM | 72 h | 48 h
